Holding throughout (format): cell-based
The subject of experiment [1] is Pseudomonas aeruginosa MB No. 2824. Nature of the experiment: Antibiotic spectrum profile, agar zone of inhibition. Particulars: MBNO.2824, 0.015 ml of 9.5 μg/ml aqueous solution, 25° C., read-out: Inhib. Zone Diam.
In experiment [2] the test system is Escherichia coli MB No. 1418. The experiment is described as above. Conditions: MBNO.1418, 0.015 ml of 9.5 μg/ml aqueous solution, 25° C., read-out: Inhib. Zone Diam.
Experiment [3] relates to Xanthomonas vesicatoria MB No. 815. The description is as above. Conditions: MBNO.815, 0.015 ml of 9.5 μg/ml aqueous solution, 25° C., read-out: Inhib. Zone Diam.
Experiment [4] relates to Vibrio percolans ATCC 8461. Nature of the experiment: Bioassay, agar plate disc-diffusion, 890A1 standard. Conditions: measured against standard of antibiotic 890A1 (defined as 250 units per HAEA300 unit). The method, then: An agar plate disc-diffusion method is employed using Vibrio percolans ATCC 8461 as tester organism. A purified sample of antibiotic 890A1 is used as standard. Antibiotic 890A1 is prepared according to the procedure set forth in Example 6.
Plates containing Vibrio percolans ATCC 8461 are prepared as follows:
A lyophilized culture of Vibrio percolans ATCC 8461 is suspended in 15 ml. of a sterilized medium containing 8 g./liter of Difco Nutrient Broth and 2 g./liter of yeast extract in distilled water "nutrient broth-yeast extract" (herein after designated NBYE). The culture is incubated overnight on a rotary shaker at 28° C. This culture is used to inoculate the surface of slants containing 1.5% agar in NBYE, and the inoculated slants are incubated overnight at 28° C., and then stored in a refrigerator. […]
Filter paper discs of one-half inch diameter are dipped into the solution to be assayed, and are placed on the agar. […] The diameter of the zone of inhibition is measured after appropriate incubation (12-14 hours at 25° C.). […]
Calculations of potencies proceed as follows: a slope is determined by measuring the zone diameters of a solution of antibiotic 890A10 and of a fourfold dilution (in KPB) of this solution. Two discs of each concentration are assayed on a single plate, and the average zone size at each concentration is determined. […] Potencies are then calculated by the formula: [formula] […]

Experiment [5] concerns Streptococcus agalactiae MB No. 2875. Nature of the experiment: Antibiotic spectrum profile, agar zone of inhibition. Particulars: MBNO.2875, 0.015 ml of 9.5 μg/ml aqueous solution, 25° C., read-out: Inhib. Zone Diam.
Another experiment has as its system Bacillus sp. MB No. 633. The description is as above. Particulars: 0.015 ml of 9.5 μg/ml aqueous solution, 25° C., read-out: Inhib. Zone Diam. The protocol:
The test to determine the antibiotic spectrum profiles of antibiotic 890A10 is carried out by application of a 0.015 ml. droplet of a 9.5 μg./ml. aqueous solution of the antibiotic on the surface of a 100×15 mm. petri plate containing 3 ml. of seeded nutrient agar plus 0.2% yeast extract which is incubated at 25° C.

Another experiment deals with Sarcina lutea ATCC 9341. Described as above. Particulars: Micrococcus luteus, ATCC9341, 0.015 ml of 9.5 μg/ml aqueous solution, 25° C., read-out: Inhib. Zone Diam.
Experiment [6] concerns Streptococcus faecalis MB No. 753. Described as above. Particulars: Enterococcus faecalis, MBNO.753, 0.015 ml of 9.5 μg/ml aqueous solution, 25° C., read-out: Inhib. Zone Diam.

Regarding `CC(=O)NCCSC1=C(C(=O)O)N2C(=O)C(C(C)OS(=O)(=O)O)C2C1` (centres unmarked) [Antibiotic 890A10], the zone of inhibition at 9.5 µg/mL in experiment [1] is 0 mm; in experiment [2], 25 mm; in experiment [3] it was 20 mm; in experiment [5] it was 29 mm; in the experiment with Bacillus sp. MB No. 633, 30 mm; with Sarcina lutea ATCC 9341 it was 33 mm. Further, the zone of inhibition at 9.5 µg/mL in experiment [6] is 0 mm. Also, the “bioassay units per HAEA300 unit” value in experiment [4] was 174 bioassay units per HAEA300 unit.

(Values after US4264736A, “Antibiotic 890A10” (Merck & Co., Inc., priority 1979, dated 1981).)
